According to PubChem BioAssay AID1259407 (Chemical Carcinogenesis Research Information System (CCRIS), 2018):
Active and inactive are the calls of the source. How the calls were made is not given here.

System: CCRIS mutagenicity, Ames/micronucleus/aberration tests
Assay: CCRIS mutagenicity studies

## C=O
End Point: IN VITRO CHROMOSOMAL ABERRATIONS, Test System: SYRIAN HAMSTER EMBRYO (SHE) CELLS, Metabolic Activation: NONE
  mutagenic call: active; positive (structural changes)
End Point: In vitro chromosomal aberrations, Test System: Chinese hamster ovary (CHO) cells, Metabolic Activation: None
  mutagenic call: active; positive
End Point: In vitro chromosomal aberrations, Test System: Chinese hamster ovary (CHO) cells, Metabolic Activation: S-9
  mutagenic call: active; positive
End Point: In vivo micronucleus, Test System: Peripheral blood erythrocytes, Species: Rat, Strain/Sex: F344/DuCrl / Male, Route: Inhalation
  mutagenic call: inactive; negative
Test System: AMES SALMONELLA TYPHIMURIUM, Strain/Indicator: TA97, Metabolic Activation: NONE, Method: PREINCUBATION
  mutagenic call: inactive; negative
Test System: AMES SALMONELLA TYPHIMURIUM, Strain/Indicator: TA97, Metabolic Activation: NONE, Method: STANDARD PLATE
  mutagenic call: active; positive
Test System: AMES SALMONELLA TYPHIMURIUM, Strain/Indicator: TA98, Metabolic Activation: RAT, LIVER, S-9, AROCLOR 1254, Method: PREINCUBATION
  mutagenic call: active; positive
Test System: AMES SALMONELLA TYPHIMURIUM, Strain/Indicator: TA98, Metabolic Activation: RAT, LIVER, S-9, AROCLOR 1254, Method: STANDARD PLATE
  mutagenic call: active; positive
Test System: AMES SALMONELLA TYPHIMURIUM, Strain/Indicator: TA100, Metabolic Activation: MOUSE LIVER S-9, AROCLOR 1254, Method: PREINCUBATION
  mutagenic call: active; positive
Test System: AMES SALMONELLA TYPHIMURIUM, Strain/Indicator: TA100, Metabolic Activation: NONE, Method: SUSPENSION
  mutagenic call: active; positive
Test System: AMES SALMONELLA TYPHIMURIUM, Strain/Indicator: TA100, Metabolic Activation: RAT LIVER S-9, AROCLOR 1254, Method: PREINCUBATION
  mutagenic call: active; positive
Test System: AMES SALMONELLA TYPHIMURIUM, Strain/Indicator: TA100, Metabolic Activation: RAT, LIVER, S-9, AROCLOR 1254, Method: STANDARD PLATE
  mutagenic call: active; positive
Test System: AMES SALMONELLA TYPHIMURIUM, Strain/Indicator: TA100, Metabolic Activation: RAT, LIVER, S-9, AROCLOR 1254, Method: SUSPENSION
  mutagenic call: active; positive
Test System: AMES SALMONELLA TYPHIMURIUM, Strain/Indicator: TA100, Metabolic Activation: RAT, LIVER, S-9, AROCLOR, Method: STANDARD PLATE
  mutagenic call: active; positive
Test System: AMES SALMONELLA TYPHIMURIUM, Strain/Indicator: TA102, Metabolic Activation: NONE, Method: FLUCTUATION TEST
  mutagenic call: active; positive
Test System: AMES SALMONELLA TYPHIMURIUM, Strain/Indicator: TA102, Metabolic Activation: NONE, Method: PREINCUBATION
  mutagenic call: active; positive
Test System: AMES SALMONELLA TYPHIMURIUM, Strain/Indicator: TA104, Metabolic Activation: MOUSE LIVER S-9, AROCLOR 1254, Method: PREINCUBATION
  mutagenic call: active; positive
Test System: AMES SALMONELLA TYPHIMURIUM, Strain/Indicator: TA104, Metabolic Activation: NONE, Method: PREINCUBATION
  mutagenic call: active; positive
Test System: AMES SALMONELLA TYPHIMURIUM, Strain/Indicator: TA104, Metabolic Activation: RAT LIVER S-9, AROCLOR 1254, Method: PREINCUBATION
  mutagenic call: active; positive
Test System: AMES SALMONELLA TYPHIMURIUM, Strain/Indicator: TA104, Metabolic Activation: RAT, LIVER, S-9, AROCLOR 1254, Method: PREINCUBATION
  mutagenic call: active; positive
Test System: AMES SALMONELLA TYPHIMURIUM, Strain/Indicator: TA1535, Metabolic Activation: NONE, Method: PREINCUBATION
  mutagenic call: inactive; negative
Test System: AMES SALMONELLA TYPHIMURIUM, Strain/Indicator: TA1535, Metabolic Activation: NONE, Method: STANDARD PLATE
  mutagenic call: inactive; negative
Test System: AMES SALMONELLA TYPHIMURIUM, Strain/Indicator: TA1535, Metabolic Activation: RAT, LIVER, S-9, AROCLOR 1254, Method: PREINCUBATION
  mutagenic call: inactive; negative
Test System: AMES SALMONELLA TYPHIMURIUM, Strain/Indicator: TA1535, Metabolic Activation: RAT, LIVER, S-9, AROCLOR 1254, Method: STANDARD PLATE
  mutagenic call: inactive; negative
Test System: AMES SALMONELLA TYPHIMURIUM, Strain/Indicator: TA1537, Metabolic Activation: NONE, Method: PREINCUBATION
  mutagenic call: inactive; negative
Test System: AMES SALMONELLA TYPHIMURIUM, Strain/Indicator: TA1537, Metabolic Activation: RAT, LIVER, S-9, AROCLOR 1254, Method: PREINCUBATION
  mutagenic call: inactive; negative
Test System: AMES SALMONELLA TYPHIMURIUM, Strain/Indicator: TA1537, Metabolic Activation: RAT, LIVER, S-9, AROCLOR 1254, Method: STANDARD PLATE
  mutagenic call: active; positive
Test System: AMES SALMONELLA TYPHIMURIUM, Strain/Indicator: TA1538, Metabolic Activation: NONE, Method: PREINCUBATION
  mutagenic call: inactive; negative
Test System: AMES SALMONELLA TYPHIMURIUM, Strain/Indicator: TA1538, Metabolic Activation: NONE, Method: STANDARD PLATE
  mutagenic call: inactive; negative
Test System: AMES SALMONELLA TYPHIMURIUM, Strain/Indicator: TA2638, Metabolic Activation: NONE, Method: STANDARD PLATE
  mutagenic call: active; positive
Test System: AMES SALMONELLA TYPHIMURIUM, Strain/Indicator: TA2638A, Metabolic Activation: NONE, Method: PREINCUBATION
  mutagenic call: active; positive
Test System: AMES SALMONELLA TYPHIMURIUM, Strain/Indicator: UTH8413, Metabolic Activation: NONE, Method: STANDARD PLATE
  mutagenic call: inactive; negative
Test System: AMES SALMONELLA TYPHIMURIUM, Strain/Indicator: UTH8413, Metabolic Activation: RAT, LIVER, S-9, AROCLOR, Method: STANDARD PLATE
  mutagenic call: inactive; negative
Test System: AMES SALMONELLA TYPHIMURIUM, Strain/Indicator: UTH8414, Metabolic Activation: NONE, Method: STANDARD PLATE
  mutagenic call: inactive; negative
Test System: AMES SALMONELLA TYPHIMURIUM, Strain/Indicator: UTH8414, Metabolic Activation: RAT, LIVER, S-9, AROCLOR, Method: STANDARD PLATE
  mutagenic call: inactive; negative
Test System: CHINESE HAMSTER OVARY, Strain/Indicator: CHO-K1 (HPRT)/6-THIOGUANINE, Metabolic Activation: NONE, Method: SUSPENSION
  mutagenic call: active; positive
Test System: CHINESE HAMSTER OVARY, Strain/Indicator: CHO-K1 (HPRT)/6-THIOGUANINE, Metabolic Activation: NONE, Method: SUSPENSION/PLATE
  mutagenic call: inactive; negative
Test System: CHINESE HAMSTER V-79, Strain/Indicator: V-79/6-THIOGUANINE, Metabolic Activation: NONE
  mutagenic call: active; positive
Test System: E. COLI, Strain/Indicator: 016 POLA, Metabolic Activation: NONE, Method: PREINCUBATION
  mutagenic call: inactive; negative
Test System: E. COLI, Strain/Indicator: H/R30R, Metabolic Activation: NONE, Method: PREINCUBATION
  mutagenic call: active; positive
Test System: E. COLI, Strain/Indicator: HS30R UVRA, Metabolic Activation: NONE, Method: PREINCUBATION
  mutagenic call: active; positive
Test System: E. COLI, Strain/Indicator: K12(AB1157) (WILD TYPE), Metabolic Activation: NONE, Method: SUSPENSION/PLATE
  mutagenic call: active; positive
Test System: E. COLI, Strain/Indicator: K12(AB1886) (UVRA), Metabolic Activation: NONE, Method: SUSPENSION/PLATE
  mutagenic call: inactive; negative
Test System: E. COLI, Strain/Indicator: K12(AB2480) (RECA/UVRA), Metabolic Activation: NONE, Method: SUSPENSION/PLATE
  mutagenic call: inactive; negative
Test System: E. COLI, Strain/Indicator: NG30 RECA, Metabolic Activation: NONE, Method: PREINCUBATION
  mutagenic call: inactive; negative
Test System: E. COLI, Strain/Indicator: WP2 (PKM101), Metabolic Activation: NONE, Method: PREINCUBATION
  mutagenic call: active; positive
Test System: E. COLI, Strain/Indicator: WP2, Metabolic Activation: NONE, Method: PREINCUBATION
  mutagenic call: active; positive
Test System: E. COLI, Strain/Indicator: WP2 UVRA (PKM101), Metabolic Activation: NONE, Method: PREINCUBATION
  mutagenic call: active; positive
Test System: E. COLI, Strain/Indicator: WP2 UVRA (PKM101), Metabolic Activation: NONE, Method: STANDARD PLATE
  mutagenic call: active; positive
Test System: E. COLI, Strain/Indicator: WP2 UVRA, Metabolic Activation: NONE, Method: PREINCUBATION
  mutagenic call: active; positive
Test System: MOUSE LYMPHOMA, Strain/Indicator: L5178Y (TK+/TK-), Metabolic Activation: NONE, Method: SUSPENSION/PLATE
  mutagenic call: active; positive

## CC(C)C(=O)N=c1sn(C(=O)C(C)C)c2ccc([N+](=O)[O-])cc12
Test System: AMES SALMONELLA TYPHIMURIUM, Strain/Indicator: TA100, Metabolic Activation: S-9, Method: STANDARD PLATE
  mutagenic call: active; positive

## O=C(Cl)CCl
End Point: IN VITRO CHROMOSOMAL ABERRATIONS, Test System: CHINESE HAMSTER LUNG (CHL), Metabolic Activation: NONE
  mutagenic call: inactive; negative
End Point: IN VITRO CHROMOSOMAL ABERRATIONS, Test System: CHINESE HAMSTER LUNG (CHL), Metabolic Activation: RAT, LIVER, S-9, KC-400
  mutagenic call: inactive; negative

## CC1(c2ccc(-c3ccccc3)cc2)CO1 (configuration not stated)
Test System: AMES SALMONELLA TYPHIMURIUM, Strain/Indicator: TA100, Metabolic Activation: NONE, Method: PREINCUBATION
  mutagenic call: active; positive

## O=C(ON(OCc1ccccc1)C(=O)c1ccccc1)c1ccc([N+](=O)[O-])cc1
Test System: AMES SALMONELLA TYPHIMURIUM, Strain/Indicator: TA100, Metabolic Activation: NONE, Method: STANDARD PLATE
  mutagenic call: active; positive
Test System: AMES SALMONELLA TYPHIMURIUM, Strain/Indicator: TA100, Metabolic Activation: RAT, S-9, AROCLOR, Method: STANDARD PLATE
  mutagenic call: active; positive
